# Reference: patent US4703039A, “Method of producing biologically active molecules having extended life time” (New England Deaconess Hospital Corporation, priority 1985, dated 1987)
# Ends that are not written are not given here.
# How the values were obtained:
# [1] = test system: ADP-modified human platelet receptor site for fibrinogen; assay: Inhibition of 125I-fibrinogen binding to ADP-treated human platelets; conditions: 10^8 human platelets/0.55 ml treated with 5 mM of ADP, FIG. 8
# Protocol: FIG. 3 is a graph showing that the inhibitory effect of the same conjugate is concentration dependent. In this experiment, human platelets were treated with ADP and a variety of concentrations of the conjugate were added to affect inhibition of ^125 I-fibrinogen binding to the platelets. As the concentration of the conjugate increases, inhibition of binding goes from 0 to almost 100%, showing the effectiveness of the conjugate.
# [2] = target: T1, ADP-modified human platelets (von Willebrand factor binding site) (Homo sapiens, UniProt P05106+P08514); assay: Inhibition of 125I-labelled von Willebrand factor binding to ADP-treated human platelets; conditions: 10^8 human platelets/0.55 ml treated with 5 mM of ADP, 14 μg 125I-von Willebrand factor, FIG. 8
# T1 construct: 10^8 human platelets/0.55 ml treated with 5 mM of ADP; endogenous in cells; host or cells: human platelets treated with ADP
# T1 sequence (P08514 32-887 limits assumed): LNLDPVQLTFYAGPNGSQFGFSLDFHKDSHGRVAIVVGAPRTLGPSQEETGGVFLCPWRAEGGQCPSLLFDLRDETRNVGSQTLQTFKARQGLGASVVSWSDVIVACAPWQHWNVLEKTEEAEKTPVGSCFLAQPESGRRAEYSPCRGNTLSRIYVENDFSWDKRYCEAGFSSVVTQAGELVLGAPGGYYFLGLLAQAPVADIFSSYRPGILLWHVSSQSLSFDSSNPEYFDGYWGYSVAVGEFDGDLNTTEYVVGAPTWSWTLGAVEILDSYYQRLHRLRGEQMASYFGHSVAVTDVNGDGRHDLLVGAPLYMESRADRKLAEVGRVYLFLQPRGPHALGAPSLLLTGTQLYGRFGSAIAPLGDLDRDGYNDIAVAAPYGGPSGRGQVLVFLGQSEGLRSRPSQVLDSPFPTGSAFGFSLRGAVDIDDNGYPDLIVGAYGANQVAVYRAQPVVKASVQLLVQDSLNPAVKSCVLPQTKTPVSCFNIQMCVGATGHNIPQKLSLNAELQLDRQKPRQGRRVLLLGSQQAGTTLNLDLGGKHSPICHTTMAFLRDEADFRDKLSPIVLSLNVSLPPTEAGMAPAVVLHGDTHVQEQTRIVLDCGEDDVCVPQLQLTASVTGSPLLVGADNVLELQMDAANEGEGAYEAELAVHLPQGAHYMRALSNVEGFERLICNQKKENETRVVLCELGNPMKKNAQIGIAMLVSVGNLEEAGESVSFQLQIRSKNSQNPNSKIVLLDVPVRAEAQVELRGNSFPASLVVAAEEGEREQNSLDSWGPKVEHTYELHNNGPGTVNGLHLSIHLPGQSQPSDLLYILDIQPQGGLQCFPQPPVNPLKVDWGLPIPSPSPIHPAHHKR
# T1 sequence (P08514 891-1039 partner limits assumed): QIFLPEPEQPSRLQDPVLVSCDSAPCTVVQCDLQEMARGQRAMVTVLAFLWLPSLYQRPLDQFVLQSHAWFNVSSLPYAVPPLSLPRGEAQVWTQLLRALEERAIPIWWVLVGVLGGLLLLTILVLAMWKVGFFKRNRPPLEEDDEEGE
# T1 sequence (P05106 27-788): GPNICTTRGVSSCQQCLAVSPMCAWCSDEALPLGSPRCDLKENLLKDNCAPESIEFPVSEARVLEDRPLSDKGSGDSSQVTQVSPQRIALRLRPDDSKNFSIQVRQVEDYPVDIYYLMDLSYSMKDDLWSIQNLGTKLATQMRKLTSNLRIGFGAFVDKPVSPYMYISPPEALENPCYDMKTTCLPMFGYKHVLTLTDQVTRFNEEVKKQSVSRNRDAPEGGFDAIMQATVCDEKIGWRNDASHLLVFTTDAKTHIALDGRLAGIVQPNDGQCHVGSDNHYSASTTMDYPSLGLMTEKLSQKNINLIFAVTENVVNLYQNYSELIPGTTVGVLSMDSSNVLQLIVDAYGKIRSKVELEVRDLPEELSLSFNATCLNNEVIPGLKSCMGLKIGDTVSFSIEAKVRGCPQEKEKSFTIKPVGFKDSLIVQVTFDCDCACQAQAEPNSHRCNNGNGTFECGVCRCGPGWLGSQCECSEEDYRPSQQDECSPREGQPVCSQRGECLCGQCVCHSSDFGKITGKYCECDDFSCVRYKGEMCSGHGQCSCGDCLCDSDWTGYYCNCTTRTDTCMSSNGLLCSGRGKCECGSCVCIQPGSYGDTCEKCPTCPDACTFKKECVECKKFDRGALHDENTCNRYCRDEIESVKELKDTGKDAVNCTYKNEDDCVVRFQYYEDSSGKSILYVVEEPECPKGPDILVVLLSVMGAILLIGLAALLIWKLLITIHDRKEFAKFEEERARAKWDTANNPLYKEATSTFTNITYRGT
# Protocol: This Example illustrates that a peptide can be used to inhibit binding of von Willebrand factor to ADP-treated human platelets. FIG. 8 illustrates the level of inhibition of ^125 I-labelled von Willebrand factor or fibrinogen binding to ADP-modified human platelets by incubation with a synthetic dodecapeptide
# [3] = target: T2, ristocetin-modified human platelets (von Willebrand factor binding site) (Homo sapiens, UniProt P07359); assay: Inhibition of 125I-labelled von Willebrand factor binding to ristocetin-treated human platelets; conditions: human platelets treated with 0.6 mg/ml ristocetin, FIG. 8
# T2 construct: von Willebrand factor to human platelets treated with 0.6 mg/ml ristocetin; endogenous in cells; host or cells: human platelets treated with ristocetin
# T2 sequence (P07359 17-652): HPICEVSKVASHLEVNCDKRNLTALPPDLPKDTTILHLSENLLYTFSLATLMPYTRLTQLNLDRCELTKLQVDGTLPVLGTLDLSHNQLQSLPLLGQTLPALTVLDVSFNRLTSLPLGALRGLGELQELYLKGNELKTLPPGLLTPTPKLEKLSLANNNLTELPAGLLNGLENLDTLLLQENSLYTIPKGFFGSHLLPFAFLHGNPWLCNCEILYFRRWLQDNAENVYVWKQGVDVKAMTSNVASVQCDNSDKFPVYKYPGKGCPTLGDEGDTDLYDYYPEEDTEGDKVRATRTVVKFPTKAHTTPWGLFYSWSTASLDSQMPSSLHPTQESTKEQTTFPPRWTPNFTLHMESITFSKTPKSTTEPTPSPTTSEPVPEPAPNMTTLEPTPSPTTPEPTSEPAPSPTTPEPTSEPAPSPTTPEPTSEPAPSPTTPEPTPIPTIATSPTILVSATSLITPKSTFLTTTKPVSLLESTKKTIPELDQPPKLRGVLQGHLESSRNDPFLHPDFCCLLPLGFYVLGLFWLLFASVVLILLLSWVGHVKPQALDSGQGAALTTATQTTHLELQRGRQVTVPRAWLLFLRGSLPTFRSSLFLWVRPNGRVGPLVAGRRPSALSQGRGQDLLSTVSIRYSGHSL
# T2 sequence (P13224 26-206 partner): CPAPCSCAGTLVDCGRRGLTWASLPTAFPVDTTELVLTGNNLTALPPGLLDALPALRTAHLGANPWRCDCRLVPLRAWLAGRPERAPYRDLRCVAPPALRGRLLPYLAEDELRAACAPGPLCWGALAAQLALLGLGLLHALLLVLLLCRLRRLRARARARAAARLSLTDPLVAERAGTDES
# T2 sequence (P14770 17-177 partner): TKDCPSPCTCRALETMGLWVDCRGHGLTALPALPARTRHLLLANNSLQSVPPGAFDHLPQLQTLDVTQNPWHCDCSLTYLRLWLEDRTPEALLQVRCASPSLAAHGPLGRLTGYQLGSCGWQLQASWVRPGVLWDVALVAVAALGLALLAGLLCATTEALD
# T2 sequence (P40197 17-560 partner): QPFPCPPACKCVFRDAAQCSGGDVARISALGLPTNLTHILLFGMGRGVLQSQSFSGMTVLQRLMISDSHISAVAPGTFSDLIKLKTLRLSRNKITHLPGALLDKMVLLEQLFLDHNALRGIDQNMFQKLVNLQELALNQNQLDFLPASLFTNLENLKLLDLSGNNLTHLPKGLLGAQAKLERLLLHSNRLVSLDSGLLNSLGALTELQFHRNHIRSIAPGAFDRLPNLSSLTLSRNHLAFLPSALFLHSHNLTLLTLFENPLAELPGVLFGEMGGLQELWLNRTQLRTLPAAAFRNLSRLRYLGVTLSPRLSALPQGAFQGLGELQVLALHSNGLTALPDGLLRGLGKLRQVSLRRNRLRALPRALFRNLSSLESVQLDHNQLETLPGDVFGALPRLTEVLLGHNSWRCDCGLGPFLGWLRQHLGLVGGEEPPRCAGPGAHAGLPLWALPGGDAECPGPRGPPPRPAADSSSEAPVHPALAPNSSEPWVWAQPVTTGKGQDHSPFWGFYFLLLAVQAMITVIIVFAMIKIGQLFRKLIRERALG
# [4] = test system: hemostatic plug formation; assay: In vivo rabbit superior mesenteric artery perfusion, bleeding time; conditions: FIG. 11
# Protocol: This Example illustrates an in vivo model of mesentric artery perfusion in a rabbit. The experimental model employed involved anesthesized white New Zealand rabbits, weighing about 2.0 kg, and fed standard diet. The right femoral artery was canulated for blood pressure measurement and blood sampling. A midline abdominal incision was made to exteriorize the small intestine, the mesentery was draped over a microscope table, and superfused continuously with saline at 37° C. […] Small arteries of 100-200 μm external diameter were cut one third across with a surgical blade at the junction of the mesentery with the intestine. The time in seconds was determined from incision until the bleeding was arrested by a spontaneously formed hemostatic plug. Infusions of selected agents tested for their effects on platelet activation were through the mesenteric cannula with a constant volume Harvard pump at a flow rate of 0.11 ml/min. Three animals were used for each dose unless otherwise indicated. Blood pressure, hematocrit, and platelet count were measured prior to and after bleeding time determinations.
# [5] = test system: ADP-treated human platelets; assay: Aggregation of ADP-treated human platelets washed free of fibrinogen, by conjugates (percent transmission); assay type: cell-based; conditions: FIG. 6 curves b and c
# Source text: FIG. 5 illustrates the effectiveness of the divalent conjugate on promoting this inhibition reaction. Human platelets were washed free of fibrinogen and other binding proteins and then treated with ADP. […] The lower curve on FIG. 5 is a control of the identical conjugate with a peptide bound to the human serum albumin that is […] to the receptor site.
# This Example illustrates that a polyvalent conjugate can also be manufactured and used in an aggregation reaction. […] Multiple copies of a different peptide, residues 397-411 of the gamma chain of fibrinogen bound to a cysteine residue were conjugated to a human serum albumin backbone. Curve a on FIG. 6 illustrates the aggregation of ADP-treated human platelets by this polyvalent conjugate. […] Curves b and c on FIG. 6 are controls illustrating the effectiveness of the conjugate as an artificial fibrinogen. In Curve b, the "model molecule" was first mixed with Fab fragments of rabbit antibody which had been made against the terminal portion of the gamma chain of human fibrinogen. […] This is evident from the almost flat response shown as Curve b on FIG. 6.
# The alternate control, inhibiting the artificial fibrinogen reaction using the peptides themselves, is shown in Curve c. In this reaction, the platelets were mixed with unconjugated peptides and then the conjugate was used in attempt to aggregate the platelets.
substance,measurement,setting,value
"HHLGGAKQAGDV [dodecapeptide, H2 N-His-His-Leu-Gly-Gly-Ala-Lys-Gln-Ala-Gly-Asp-Val-C OOH]",inhibition of 125I-labelled fibrinogen binding,[1],substantial binding inhibition
same,inhibition of 125I-labelled von Willebrand factor binding,[2],substantial binding inhibition
same,inhibition of 125I-labelled von Willebrand factor binding,[3],does not inhibit
HHLGGAKQAGDV [inhibitory peptide],bleeding time relative to its original time (diluent infusion),[4]; infusion through the mesenteric cannula,more than double its original time
same,time to resume original bleeding time after peptide infusion is replaced by diluent,[4]; said to show clearance of the peptide,approximately 20 minutes
"unconjugated peptides: the peptides of the polyvalent conjugate themselves, unconjugated (gamma chain residues 397-411 with cysteine)",inhibition of platelet aggregation induced by the polyvalent conjugate (artificial fibrinogen),[5],aggregation reaction by the artificial fibrinogen conjugate is inhibited
